Experimental data reported in PubChem BioAssay (NCI).
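Cells were grown in 96-well plates and exposed to each compound for 48 hours at five concentrations; endpoints were interpolated linearly between bracketing concentrations, or set to the highest concentration if not reached. The concentration for full growth arrest is given as TGI.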

Legend:
Test in all cases: growth of human tumour cells (NCI), 48 h
[1] = test system: A549 NSCLC
[2] = test system: CCRF-CEM leukemia
[3] = test system: EKVX NSCLC
[4] = test system: HCT-116 colon
[5] = test system: HOP-62 NSCLC
[6] = test system: MDA-MB-435
[7] = test system: MDA-N
[8] = test system: SF-539 CNS
[9] = test system: SNB-19 CNS
[10] = test system: TK-10 renal

Row | Compound | TGI [1] [µM] | TGI [2] [µM] | TGI [3] [µM] | TGI [4] [µM] | TGI [5] [µM] | TGI [6] [µM] | TGI [7] [µM] | TGI [8] [µM] | TGI [9] [µM] | TGI [10] [µM]
1 | COc1cccc(C2c3cc4c(cc3OC(NNC(N)=O)C2C)OCO4)c1OC (stereo not given) | 56 | > 100 | > 100 | 27.6 | 57.5 | 70.1 | 82.7 | 37.5 | > 100 | 86.3
2 | Oc1ccccc1CNCc1ccccc1O | > 100 | > 100 | > 100 | > 100 | > 100 | > 100 | > 100 | > 100 | > 100 | > 100
3 | O=C(O)c1ccccc1/C=N\N(CCO)C1=NCCN1 | > 100 | > 100 | > 100 | > 100 | > 100 | > 100 | > 100 | > 100 | > 100 | > 100
4 | O=C1/C(=C/c2cccc([N+](=O)[O-])c2)Cc2ccccc21 | > 100 | > 100 | > 100 | > 100 | > 100 | > 100 | > 100 | > 100 | > 100 | > 100
5 | Cc1ccc(C(CCO)CCO)nc1 | > 100 | > 100 | > 100 | > 100 | > 100 | > 100 | > 100 | > 100 | > 100 | > 100
6 | Nc1n[nH]c(N)n1 | > 10000 | > 9030 | > 7740 | > 10000 | 3550 | > 10000 | > 10000 | 8860 | > 10000 | > 10000
7 | CC(C)(CN1CCCCC1)C(=O)CC(SCCS(=O)(=O)O)c1ccccc1 (stereo not given) | > 100 | 32.1 | 50.5 | 18.2 | 62.1 | 29.3 | 34.6 | 60.3 | 54.2 | 38.1
8 | CCCCCCc1cc2cc(-c3cn4ccccc4n3)c(=O)oc2cc1O | 31.2 | > 100 | 45.4 | 16.9 | 24.4 | 20.6 | 18.9 | 7.19 | 26 | 30.1
9 | COc1cc(C2SCC(=O)N2c2ccc(Cl)cc2)cc(OC)c1OC (stereo not given) | > 100 | 30.6 | > 60.1 | > 100 | > 100 | 19.4 | 20.9 | > 100 | > 100 | > 100
10 | CC(c1ccccc1)n1c2ccccc2c2c(N)ncnc21 (stereo not given) | 46.3 | > 100 | 24.7 | 38.5 | 31.9 | 31 | 51.9 | 30.8 | 33.8 | 34.9
11 | CC1=NC(=O)CNN1C1=NNC2(C(=O)N1)c1ccccc1-c1ccccc12 | > 100 | > 100 | > 100 | > 100 | > 100 | > 100 | > 100 | > 100 | > 100 | > 100
12 | CCOC(=O)c1c(Br)c(-c2ccc([N+](=O)[O-])cc2)c(Br)n1C | > 10 | > 10 | > 10 | > 10 | > 10 | > 10 | > 10 | > 10 | > 10 | > 10
13 | COC(=O)CCc1cc(OC)c2oc(-c3ccc(OC)c(OC)c3)c(CO)c2c1 | > 100 | > 100 | > 100 | > 100 | > 100 | > 100 | > 100 | > 100 | > 100 | > 100
14 | CC(=O)O[C@H]1C(=O)[C@@]2(C)[C@H]([C@H](OC(=O)c3ccccc3)[C@]3(O)C[C@H](OC(=O)[C@H](O)[C@@H](NC(=O)OC(C)(C)C)c4ccco4)C(C)=C1C3(C)C)[C@]1(OC(C)=O)CO[C@@H]1C[C@@H]2O | > 50 | 35.7 | > 50 | 17.5 | 0.601 | 2.27 | 0.0325 | 0.0138 | > 50 | 29
15 | Cc1cc(S(=O)(=O)Nc2nnc3c(Cl)cc(C(F)(F)F)cn23)c(S)cc1Cl | > 100 | > 100 | > 100 | > 100 | > 100 | > 100 | > 100 | > 100 | > 91.4 | > 100
16 | COc1c(N2CCCCC2)c2c(=O)c3ccccc3oc2c2c3ccccc3n(C)c12 | > 100 | > 100 | > 100 | > 100 | > 100 | > 100 | > 100 | > 100 | > 100 | > 100
